pKi: −log10 of the molar value. Where a name gives a salt, the structure may show the parent alone.
Each compound was assayed against T1, human 5-HT3 serotonin receptors (Homo sapiens, UniProt P46098) (assay: biochemical). Details: not given.
T1 sequence (P46098 24-478): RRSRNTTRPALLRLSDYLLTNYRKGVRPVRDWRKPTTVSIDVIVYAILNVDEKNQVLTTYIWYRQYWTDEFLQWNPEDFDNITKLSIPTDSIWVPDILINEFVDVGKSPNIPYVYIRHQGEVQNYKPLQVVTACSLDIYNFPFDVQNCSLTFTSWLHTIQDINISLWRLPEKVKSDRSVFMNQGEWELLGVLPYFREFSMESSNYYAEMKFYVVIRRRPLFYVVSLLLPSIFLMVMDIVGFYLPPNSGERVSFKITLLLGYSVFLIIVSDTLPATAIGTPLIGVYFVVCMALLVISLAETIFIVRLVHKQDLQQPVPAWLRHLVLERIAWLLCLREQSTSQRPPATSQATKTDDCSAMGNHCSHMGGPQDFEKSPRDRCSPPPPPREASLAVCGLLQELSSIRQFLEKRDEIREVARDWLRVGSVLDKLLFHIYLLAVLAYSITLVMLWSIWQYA
Type: binding

| SMILES | pKi |
| --- | --- |
| Cc1cn2ccc(NC3=NO[C@@]4(C3)CN3CCC4CC3)cc2n1 [(R)-96, (R)-N-(2-methylimidazo[1,2-a]pyridin-7-yl)-4H-1′-azaspiro[isoxazole-5,3′-bicyclo[2.2.2]octan]-3-amine hydrochloride] | < 5.00 |

Same assay, conditions: CHO cell membranes expressing human 5-HT3 receptors, [3H]BRL 43694, 120 min at room temperature; read-out: h-5HT3 Ki

| SMILES | pKi |
| --- | --- |
| Clc1cc2ccc(NC3=NO[C@@]4(C3)CN3CCC4CC3)cc2o1 [(R)-63, (R)—N-(2-chlorobenzofuran-6-yl)-4H-1′-azaspiro[isoxazole-5,3′-bicyclo[2.2.2]octan]-3-amine hydrochloride] | < 5.00 |
| Clc1cc2ccc(NC3=NO[C@@]4(C3)CN3CCC4CC3)cc2s1 [(R)-54, (R)—N-(2-chlorobenzo[b]thiophen-6-yl)-4H-F-azaspiroksoxazole-5,3^1-bicyclo[2.2.2]octan1-3-amine hydrochloride] | < 5.00 |
| Clc1ccc2cc(NC3=NO[C@@]4(C3)CN3CCC4CC3)ncc2c1 [(R)-19, (R)—N-(7-chloroisoquinolin-3-yl)-4H-1′-azaspiro[isoxazole-5,3′-bicyclo[2.2.2]octan]-3-amine hydrochloride] | < 5.00 |
| Cc1cc2cnc(NC3=NO[C@@]4(C3)CN3CCC4CC3)nc2s1 [(R)-52, (R)—N-(6-methylthieno[2,3-d]pyrimidin-2-yl)-4H-1′-azaspiro[isoxazole-5,3′-bicyclo[2.2.2]octan]-3-amine hydrochloride] | < 5.00 |
| Clc1ccc2cc(NC3=NOC4(C3)CN3CCC4CC3)ncc2c1 (single isomer, unassigned) [Compound 19-P2, N-(7-chloroisoquinolin-3-yl)-4H-1′-azaspiro[isoxazole-5,3′-bicyclo[2.2.2]octan]-3-amine] | < 5.00 |
| Cc1cc2cc(NC3=NO[C@@]4(C3)CN3CCC4CC3)ccc2s1 [(R)-43, (R)—N-(2-methylbenzo[b]thiophen-5-yl)-4H-1′-azaspiro[isoxazole-5,3′-bicyclo[2.2.2.]octan]-3-amine hydrochloride] | 5.23 |
| Cc1ccc2sc(NC3=NO[C@@]4(C3)CN3CCC4CC3)nc2c1 [(R)-25, (R)—N -(5-methylbenzo[d]thiazol-2-yl)-4H-1′-azaspiro[isoxazole-5,3′-bicyclo[2.2.2]octan]-3-amine hydrochloride] | 5.38 |
| Clc1ccc2sc(NC3=NOC4(C3)CN3CCC4CC3)nc2c1 (single isomer, unassigned) [Compound 9-P2, N-(5-chlorobenzo[d]thiazol-2-yl)-4H-1′-azaspiro[isoxazole-5,3′-bicyclo[2.2.2]octan]-3-amine] | < 5.00 |
| Cc1cc2ccc(NC3=NO[C@@]4(C3)CN3CCC4CC3)nc2s1 [(R)-53, (R)—N-(2-methylthieno[2,3-b]pyridin-6-yl)-4H-1′-azaspiro[isoxazole-5,3′-bicyclo[2.2.2]octan]-3-amine hydrochloride] | < 5.00 |
| c1cnc2ccc(NC3=NO[C@@]4(C3)CN3CCC4CC3)cc2c1 [(R)-80, (R)—N-(quinolin-6-yl)-41-1-1^1-azaspiro[isoxazole-5,3′-bicyclo[2.2.2]octan]-3-amine hydrochloride] | < 5.00 |
| Fc1cc2cc(NC3=NO[C@@]4(C3)CN3CCC4CC3)ncc2cc1Cl [(R)-82, (R)—N-(7-chloro-6-fluoroisoquinolin-3-yl)-4H-1′-azaspiro[isoxazole-5,3′-bicyclo[2.2.2]octan]-3-amine hydrochloride] | < 5.00 |
| Cc1csc2cc(NC3=NO[C@@]4(C3)CN3CCC4CC3)ccc12 [(R)-56, (R)—N -(3-methylbenzo[b]thiophen-6-yl)-4H-1′-azaspiro[isoxazole-5,3′-bicyclo[2.2.2]octan]-3-amine hydrochloride] | < 5.00 |
| c1ccc2cc(NC3=NOC4(C3)CN3CCC4CC3)ncc2c1 (single isomer, unassigned) [Compound 2-P2, N-(isoquinolin-3-yl)-4H-1′-azaspiro[isoxazole-5,3′-bicyclo[2.2.2]octan]-3-amine] | 6.09 |
| Cc1noc2cc(NC3=NO[C@@]4(C3)CN3CCC4CC3)ccc12 [(R)-66, (R)—N -(3-methylbenzo[d]isoxazol-6-yl)-4H-1′-azaspiro[isoxazole-5,3′-bicyclo[2.2.2]octan]-3-amine hydrochloride] | 5.35 |
| Fc1ccc2cnc(NC3=NO[C@@]4(C3)CN3CCC4CC3)cc2c1 [(R)-45, (R)—N-(6-fluoroisoquinolin-3-yl)-4H-1′-azaspiro[isoxazole-5,3′-bicyclo[2.2.2]octan]-3-amine hydrochloride] | < 5.00 |
| c1ccc2sc(NC3=NOC4(C3)CN3CCC4CC3)cc2c1 (racemic) [rac-12, (+/−)-N-(benzo[b]thiophen-2-yl)-4H-1′-azaspiro[isoxazole-5,3′-bicyclo[2.2.2]octan]-3-amine] | 5.74 |
| Cc1cc2ccc(NC3=NO[C@@]4(C3)CN3CCC4CC3)cc2s1 [(R)-42, (R)—N-(2-methylbenzo[b]thiophen-6-yl)-4H-1′-azaspiro[isoxazole-5,3′-bicyclo[2.2.2]octan]-3-amine hydrochloride] | < 5.00 |
| Cc1ccc2cnc(NC3=NO[C@@]4(C3)CN3CCC4CC3)cc2c1 [(R)-60, (R)—N-(6-methylisoquinolin-3-yl)-4H-1′-azaspiro[isoxazole-5,3′-bicyclo[2.2.2]octan]-3-amine hydrochloride] | < 5.00 |
| c1ccc2c(NC3=NOC4(C3)CN3CCC4CC3)n[nH]c2c1 (racemic) [Compound 5-P1, N-(1H-indazol-3-yl)-4′H-4-azaspiro[bicyclo[2.2.2]octane-2,5′-isoxazol]-3′-amine] | 6.12 |
| c1ccc2sc(NC3=NOC4(C3)CN3CCC4CC3)nc2c1 (single isomer, unassigned) [Compound 3-P2, N-(benzo[d]thiazol-2-yl)-4H-1′-azaspiro[isoxazole-5,3′-bicyclo[2.2.2]octan]-3-amine] | 6.46 |
| Cn1ncc2ccc(NC3=NO[C@@]4(C3)CN3CCC4CC3)cc21 [(R)-64, (R)—N-(1-methyl-1H-indazol-6-yl)-4H-1′-azaspiro[isoxazole-5,3′-bicyclo[2.2.2]octan]-3-amine hydrochloride] | < 5.00 |
| Clc1cccc2cnc(NC3=NO[C@@]4(C3)CN3CCC4CC3)cc12 [(R)-24, (R)—N -(5-chloroisoquinolin-3-yl)-4H-1′-azaspiroksoxazole-5,3′-bicyclo[2.2.2]octan1-3-amine hydrochloride] | 6.59 |
| COc1ccc2nc(NC3=NOC4(C3)CN3CCC4CC3)sc2c1 (single isomer, unassigned) [Compound 4-P2, N-(6-methoxybenzo[d]thiazol-2-yl)-4H-1′-azaspiro[isoxazole-5,3′-bicyclo[2.2.2]octan]-3-amine] | < 5.00 |
| Fc1ccc2sc(NC3=NO[C@@]4(C3)CN3CCC4CC3)nc2c1 [(R)-27, (R)—N-(5-fluorobenzo[d]thiazol-2-yl)-4H-1′-azaspiro[isoxazole-5,3′-bicyclo[2.2.2]octan]-3-amine hydrochloride] | 5.24 |
| Cc1nsc2cc(NC3=NO[C@@]4(C3)CN3CCC4CC3)ccc12 [(R)-72, (R)—N-(3-methylbenzo[d]isothiazol-6-yl)-4H-1′-azaspiro[isoxazole-5,3′-bicyclo[2.2.2]octan]-3-amine hydrochloride] | < 5.00 |

Same assay, conditions: read-out: h-5HT3 Ki

| SMILES | pKi |
| --- | --- |
| c1cnc2cc(NC3=NO[C@@]4(C3)CN3CCC4CC3)ccc2c1 [(R)-79, (R)—N-(quinolin-7-yl)-4H-1′-azaspiro[isoxazole-5,3′-bicyclo[2.2.2]octan]-3-amine hydrochloride] | 5.25 |
